# According to ChEMBL document CHEMBL4219114, “Aralkyl selenoglycosides and related selenosugars in acetylated form activate protein phosphatase-1 and -2A” (Bioorg Med Chem, 2018):
# Activity calls are given as the source filed them. No cut-off for these calls is given here.
# Test system: not listed separately
# Experiment: Activation of rabbit skeletal muscle PP1 catalytic subunit using [32P]MLC20 as substrate pretreated for 10 mins followed by substrate addition measured after 10 mins by scintillation counting method relative to control
# Set-up: species or system Oryctolagus cuniculus
row,Compound,EC50 [µM]
1,CC(=O)OC[C@H]1O[C@@H]([Se]c2ccccc2)[C@H](OC(C)=O)[C@@H](OC(C)=O)[C@@H]1OC(C)=O,291
2,CC(=O)OC[C@H]1O[C@@H]([Se]Cc2ccc(Br)cc2)[C@H](OC(C)=O)[C@@H](OC(C)=O)[C@@H]1OC(C)=O,108
3,COc1ccc(C[Se][C@@H]2O[C@H](COC(C)=O)[C@@H](OC(C)=O)[C@H](OC(C)=O)[C@H]2OC(C)=O)cc1,222
4,CC(=O)OC[C@H]1O[C@@H]([Se]CCc2ccccc2)[C@H](OC(C)=O)[C@@H](OC(C)=O)[C@@H]1OC(C)=O,171
5,CC(=O)OC[C@H]1O[C@@H]([Se]Cc2ccccc2C(F)(F)F)[C@H](OC(C)=O)[C@@H](OC(C)=O)[C@@H]1OC(C)=O,233

# Species: Oryctolagus cuniculus
# Experiment: Activation of rabbit skeletal muscle PP1 catalytic subunit at 395 uM using [32P]MLC20 as substrate pretreated for 10 mins followed by substrate addition measured after 10 mins in presence of 10 to 25 uM MYPT1 (23 to 38 residues) peptide by scintillation counting method
row,Compound,Activity
1,CC(=O)OC[C@H]1O[C@@H]([Se]Cc2ccc(Br)cc2)[C@H](OC(C)=O)[C@@H](OC(C)=O)[C@@H]1OC(C)=O,inactive
2,CC(=O)OC[C@H]1O[C@@H]([Se]Cc2ccccc2C(F)(F)F)[C@H](OC(C)=O)[C@@H](OC(C)=O)[C@@H]1OC(C)=O,inactive

# Target: Serine/threonine-protein phosphatase PP1-beta catalytic subunit (Homo sapiens) (UniProt P62140)
# Sequence (P62140 whole entry): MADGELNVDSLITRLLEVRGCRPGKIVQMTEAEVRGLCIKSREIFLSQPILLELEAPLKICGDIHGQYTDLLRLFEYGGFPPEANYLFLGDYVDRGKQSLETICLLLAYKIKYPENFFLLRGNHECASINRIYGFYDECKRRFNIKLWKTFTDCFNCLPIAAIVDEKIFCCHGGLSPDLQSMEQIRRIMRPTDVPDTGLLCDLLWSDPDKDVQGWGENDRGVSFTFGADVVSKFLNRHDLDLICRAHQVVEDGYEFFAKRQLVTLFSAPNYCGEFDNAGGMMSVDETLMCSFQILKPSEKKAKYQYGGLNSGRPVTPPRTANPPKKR
# Experiment: Binding affinity to full length recombinant human N-terminal His6-tagged PP1cdelta expressed in Escherichia coli M15 assessed as inhibition of protein interaction with GST-tagged MYPT1 at 10 to 50 uM by surface plasmon resonance method
row,Compound,Activity
1,CC(=O)OC[C@H]1O[C@@H]([Se]Cc2ccc(Br)cc2)[C@H](OC(C)=O)[C@@H](OC(C)=O)[C@@H]1OC(C)=O,Active
2,CC(=O)OC[C@H]1O[C@@H]([Se]Cc2ccccc2C(F)(F)F)[C@H](OC(C)=O)[C@@H](OC(C)=O)[C@@H]1OC(C)=O,Active

# Species: Oryctolagus cuniculus
# Experiment: Activation of rabbit skeletal muscle PP2A catalytic subunit at 19 to 395 uM using [32P]MLC20 as substrate pretreated for 10 mins followed by substrate addition measured after 10 mins by scintillation counting method relative to control
Compound,Activity,fold change (FC)
CC(=O)N[C@@H]1[C@@H](OC(C)=O)[C@H](OC(C)=O)[C@@H](COC(C)=O)O[C@H]1[Se]c1ccc([N+](=O)[O-])cn1,inactive,–
CC(=O)OC[C@H]1O[C@@H]([Se]c2ccccc2)[C@H](OC(C)=O)[C@@H](OC(C)=O)[C@@H]1OC(C)=O,–,4
OC[C@H]1O[C@@H]([Se]Cc2ccccc2)[C@H](O)[C@@H](O)[C@@H]1O,inactive,–
CC(=O)OC[C@H]1O[C@@H]([Se]C(=O)c2ccccc2)[C@H](OC(C)=O)[C@@H](OC(C)=O)[C@@H]1OC(C)=O,inactive,–
CC(=O)OC[C@H]1O[C@@H]([Se]Cc2ccc(Br)cc2)[C@H](OC(C)=O)[C@@H](OC(C)=O)[C@@H]1OC(C)=O,Active,–
COc1ccc(C[Se][C@@H]2O[C@H](COC(C)=O)[C@@H](OC(C)=O)[C@H](OC(C)=O)[C@H]2OC(C)=O)cc1,Active,–
CC(=O)OC[C@H]1O[C@@H]([Se]CCc2ccccc2)[C@H](OC(C)=O)[C@@H](OC(C)=O)[C@@H]1OC(C)=O,–,4
CC(=O)OC[C@H]1O[C@@H]([Se]Cc2ccccc2C(F)(F)F)[C@H](OC(C)=O)[C@@H](OC(C)=O)[C@@H]1OC(C)=O,Active,–

# Test system: not listed separately
# Experiment: Inhibition of rabbit skeletal muscle PP2A catalytic subunit at 19 to 395 uM using [32P]MLC20 as substrate pretreated for 10 mins followed by substrate addition measured after 10 mins by scintillation counting method relative to control
# Set-up: species or system Oryctolagus cuniculus
row,Compound,inhibition (INH)
1,CC(=O)N[C@@H]1[C@@H](OC(C)=O)[C@H](OC(C)=O)[C@@H](COC(C)=O)O[C@H]1[Se]c1ccc([N+](=O)[O-])cn1,Active
2,CC(=O)OC[C@H]1O[C@@H]([Se]C(=O)c2ccccc2)[C@H](OC(C)=O)[C@@H](OC(C)=O)[C@@H]1OC(C)=O,Active

# Test system: HeLa
# Experiment: Cytotoxicity against human HeLa cells assessed as reduction in cell viability at >200 uM after 24 hrs by Alamar blue assay
# Format: functional, cell-based
row,Compound,Activity
1,OC[C@H]1O[C@@H]([Se]Cc2ccccc2)[C@H](O)[C@@H](O)[C@@H]1O,Active
2,CC(=O)OC[C@H]1O[C@@H]([Se]Cc2ccccc2C(F)(F)F)[C@H](OC(C)=O)[C@@H](OC(C)=O)[C@@H]1OC(C)=O,Active

# Test system: HeLa
# Experiment: Activation of PP1 catalytic subunit/PP2A catalytic subunit in human HeLa cells at >100 uM using [32P]MLC20 as substrate pretreated for 1 hr followed by substrate addition measured after 30 secs by scintillation counting method
# Format: cell-based
row,Compound,Activity
1,CC(=O)OC[C@H]1O[C@@H]([Se]Cc2ccccc2C(F)(F)F)[C@H](OC(C)=O)[C@@H](OC(C)=O)[C@@H]1OC(C)=O,Active

# Species: Oryctolagus cuniculus
# Experiment: Activation of rabbit skeletal muscle PP2A catalytic subunit at 395 uM using [32P]MLC20 as substrate pretreated for 10 mins followed by substrate addition measured after 10 mins in presence of 10 uM MYPT1 (23 to 38 residues) peptide by scintillation counting method relative to control
row,Compound,Activity
1,CC(=O)OC[C@H]1O[C@@H]([Se]Cc2ccc(Br)cc2)[C@H](OC(C)=O)[C@@H](OC(C)=O)[C@@H]1OC(C)=O,Active
2,CC(=O)OC[C@H]1O[C@@H]([Se]Cc2ccccc2C(F)(F)F)[C@H](OC(C)=O)[C@@H](OC(C)=O)[C@@H]1OC(C)=O,Active

# Test system: not listed separately
# Experiment: Activation of rabbit skeletal muscle PP2A catalytic subunit using [32P]MLC20 as substrate pretreated for 10 mins followed by substrate addition measured after 10 mins by scintillation counting method relative to control
# Set-up: species or system Oryctolagus cuniculus
row,Compound,EC50 [µM]
1,CC(=O)OC[C@H]1O[C@@H]([Se]c2ccccc2)[C@H](OC(C)=O)[C@@H](OC(C)=O)[C@@H]1OC(C)=O,84.8
2,CC(=O)OC[C@H]1O[C@@H]([Se]Cc2ccc(Br)cc2)[C@H](OC(C)=O)[C@@H](OC(C)=O)[C@@H]1OC(C)=O,119
3,COc1ccc(C[Se][C@@H]2O[C@H](COC(C)=O)[C@@H](OC(C)=O)[C@H](OC(C)=O)[C@H]2OC(C)=O)cc1,119
4,CC(=O)OC[C@H]1O[C@@H]([Se]CCc2ccccc2)[C@H](OC(C)=O)[C@@H](OC(C)=O)[C@@H]1OC(C)=O,104
5,CC(=O)OC[C@H]1O[C@@H]([Se]Cc2ccccc2C(F)(F)F)[C@H](OC(C)=O)[C@@H](OC(C)=O)[C@@H]1OC(C)=O,83.5

# Test system: HeLa
# Experiment: Activation of PP1 catalytic subunit/PP2A catalytic subunit in human HeLa cells using [32P]MLC20 as substrate pretreated for 1 hr followed by substrate addition measured after 30 secs by scintillation counting method
# Format: cell-based
row,Compound,Activity
1,OC[C@H]1O[C@@H]([Se]Cc2ccccc2)[C@H](O)[C@@H](O)[C@@H]1O,inactive

# Test system: HeLa
# Experiment: Activation of PP1 catalytic subunit/PP2A catalytic subunit in human HeLa cells at 395 uM using [32P]MLC20 as substrate pretreated for 1 hr followed by substrate addition measured after 30 secs by scintillation counting method
# Format: cell-based
row,Compound,Activity
1,CC(=O)OC[C@H]1O[C@@H]([Se]Cc2ccc(Br)cc2)[C@H](OC(C)=O)[C@@H](OC(C)=O)[C@@H]1OC(C)=O,Active

# Test system: not listed separately
# Experiment: Inhibition of rabbit skeletal muscle PP1 catalytic subunit at 19 to 395 uM using [32P]MLC20 as substrate pretreated for 10 mins followed by substrate addition measured after 10 mins by scintillation counting method
# Set-up: species or system Oryctolagus cuniculus
row,Compound,inhibition (INH)
1,CC(=O)N[C@@H]1[C@@H](OC(C)=O)[C@H](OC(C)=O)[C@@H](COC(C)=O)O[C@H]1[Se]c1ccc([N+](=O)[O-])cn1,Active
2,CC(=O)OC[C@H]1O[C@@H]([Se]C(=O)c2ccccc2)[C@H](OC(C)=O)[C@@H](OC(C)=O)[C@@H]1OC(C)=O,Active

# Species: Oryctolagus cuniculus
# Experiment: Activation of rabbit skeletal muscle PP1 catalytic subunit at 19 to 395 uM using [32P]MLC20 as substrate pretreated for 10 mins followed by substrate addition measured after 10 mins by scintillation counting method relative to control
Compound,Activity,fold change (FC)
CC(=O)N[C@@H]1[C@@H](OC(C)=O)[C@H](OC(C)=O)[C@@H](COC(C)=O)O[C@H]1[Se]c1ccc([N+](=O)[O-])cn1,inactive,–
CC(=O)OC[C@H]1O[C@@H]([Se]c2ccccc2)[C@H](OC(C)=O)[C@@H](OC(C)=O)[C@@H]1OC(C)=O,–,4
OC[C@H]1O[C@@H]([Se]Cc2ccccc2)[C@H](O)[C@@H](O)[C@@H]1O,inactive,–
CC(=O)OC[C@H]1O[C@@H]([Se]C(=O)c2ccccc2)[C@H](OC(C)=O)[C@@H](OC(C)=O)[C@@H]1OC(C)=O,–,2
CC(=O)OC[C@H]1O[C@@H]([Se]Cc2ccc(Br)cc2)[C@H](OC(C)=O)[C@@H](OC(C)=O)[C@@H]1OC(C)=O,Active,–
COc1ccc(C[Se][C@@H]2O[C@H](COC(C)=O)[C@@H](OC(C)=O)[C@H](OC(C)=O)[C@H]2OC(C)=O)cc1,Active,–
CC(=O)OC[C@H]1O[C@@H]([Se]CCc2ccccc2)[C@H](OC(C)=O)[C@@H](OC(C)=O)[C@@H]1OC(C)=O,–,4
CC(=O)OC[C@H]1O[C@@H]([Se]Cc2ccccc2C(F)(F)F)[C@H](OC(C)=O)[C@@H](OC(C)=O)[C@@H]1OC(C)=O,Active,–
